# In patent US12139488B2, “Pyrido[3,2-d]pyrimidine compounds uses thereof for treating a proliferative disease” (Universite de Montreal, priority 2021, dated 2024):
# Columns and labels:
# ARAF = ARAF (Homo sapiens (Human), UniProt P10398); test: ARAF kinase activity assay (AlphaLISA p-MEK 1/2 detection); type: biochemical
# Protocol: Compound preparation: solid samples of each substances in 1 dram vials were suspended in DMSO (Fisher Scientific) at a stock concentration of 20 mM. Stocks were kept at −20° C. and protected from light. If solubility of the compound at 20 mM appeared to be an issue, the initial concentration of the DMSO stock was changed to 10 mM or 5 mM.
# In vitro enzymatic reactions were used for evaluating compounds intrinsic activity against BRAF, CRAF and ARAF. For BRAF and CRAF, 0.375 nM of purified GST-tagged kinases (cat #B4062-10 UG and cat #R1656-10 UG respectively from Millipore Sigma) were incubated with 75 nM of kinase-dead MEK1 substrate (cat #40075; BPS Bioscience) in the presence of 10 μM of Ultrapure ATP (cat #V9102; Promega; part V915A) with and without the test compound in a buffer containing 50 mM HEPES pH 7.5, 10 mM MgCl2, 1 mM EDTA, 0.01% Brij-35 and 2 mM DTT. Separate reactions were performed with the MEK1 substrate and ATP as a blank control. ARAF, kinase reactions were rigorously the same with the exception that kinase concentration was raised to 3.75 nM (cat #1768-0000-1; Reaction Biology).
# For compound treatment, 5 μL/well of test substance solution are placed in a 384-well proxyplate (Perkin Elmer) and mixed with 2× concentrated kinase reactions. The dilution series is selected so that nine concentrations cover a range from 100 nM to 0.01 nM. […] The final concentration of DMSO in the assay is set at 0.05%.
# ARAF kinase reactions were carried out for a total of 2 hours at 30° C. and then stopped by addition of EDTA at a final concentration of 40 mM. Reactions were then detected using the AlphaLISA® SureFire® Ultra™ p-MEK 1/2 (Ser218/222) (PerkinElmer) kit. Reactions were performed with 5 μL of kinase reaction according to the manufacturer's specifications in 384-well proxyplates (Perkin Elmer) followed by overnight incubation of the AlphaLISA® reactions at room temperature in a humidified chamber. After completion of the detection reactions, the signals were recorded on a Synergy Neo2 plate reader (Biotek) equipped with AlphaLISA® filters. The effect of each compound dilution on the pMEK signal generated by ARAF reactions was expressed in % inhibition and calculated as follows. An internal 100% inhibition control (average of luminescence in kinase reactions comprising kinase dead MEK1 substrate alone) was included in each plate to measure of pMEK background and was subtracted from each data point. The average of DMSO (vehicle) controls (set as 0% inhibition) was also established and used to calculate % inhibition: % inhibition=100*(1−((pMEK signalcompound)/(pMEK signalDMSO)))
# IC50 values were obtained by plotting the kinase inhibition values and fitting the dose-activity curves using a log(agonist) versus response-variable slope (four parameters) function using either GraphPadPrism (V7.0) or Dotmatics Screening Ultra platform. Standards included in the ARAF kinase assay were Belvarafenib (MedChem Express cat #HY-109080; CAS #1446113-23-0), LXH254 (MedChem Express cat #HY-112089; CAS #1800398-38-2) and BGB283 (cat #HY-18957; CAS #1446090-79-4).
# [1] = tested on: pERK in HCT-116 cells (KRAS G13D); test: Phospho-ERK inhibition (AlphaLISA SureFire Ultra p-ERK 1/2), HCT116; type: cell-based, human
# Summary of the method: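 Cells plated in RPMI-1640 with 5% FBS, kept overnight at 37° C, then treated 1 h with ten-point dilutions (top usually 10 μM; 0.5% DMSO). Lysate p-ERK1/2 (Thr202/Tyr204) read by AlphaLISA SureFire Ultra. % inhibition set against DMSO after subtracting the trametinib background; IC50 from four-parameter fit.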
# [2] = tested on: pERK and pMEK in RAS-mutant HCT-116 cells; test: Immunoblot analysis of pERK and pMEK in HCT-116 cells; type: cell-based, human; settings: 1 h treatment, FIG. 2
# Protocol: For immunoblotting analysis, 500,000 HCT-116 cells were plated in 1 mL of complete RPMI-1640 growth medium in 24-well flat-bottomed transparent dishes (Costar). Cells were maintained overnight at 37° C. under 5% CO2 before treatment with compounds' dilution series for one hour.
# Cells were then washed once in PBS and lized in 250 μL of Igepal Lysis Buffer (50 mM Tris-HCl pH 7.5, 150 mM NaCl, 1% Igepal-CA630, 1 mM EDTA, 10% Glycerol) supplemented with Leupeptin, Aprotinin, PMSF, phosphatase inhibitor cocktail (Sigma) and Na3VO4 at 4° C. for 15 minutes with gentle rocking. Cell extracts were then cleared by centrifugation at 20,000 g at 4° C. for 10 minutes. Cleared lysates were then transferred on ice in fresh tubes and then boiled in sample loading buffer (100 mM Tris-HCl pH 6.8, 4% SDS, 0.2% bromophenol blue, 20% glycerol, 200 mM p-mercaptoethanol) for 5 minutes prior to fractionation by SDS-PAGE and transfer to nitrocellulose membranes (PALL). […]
# Sequence of ARAF (P10398 whole entry): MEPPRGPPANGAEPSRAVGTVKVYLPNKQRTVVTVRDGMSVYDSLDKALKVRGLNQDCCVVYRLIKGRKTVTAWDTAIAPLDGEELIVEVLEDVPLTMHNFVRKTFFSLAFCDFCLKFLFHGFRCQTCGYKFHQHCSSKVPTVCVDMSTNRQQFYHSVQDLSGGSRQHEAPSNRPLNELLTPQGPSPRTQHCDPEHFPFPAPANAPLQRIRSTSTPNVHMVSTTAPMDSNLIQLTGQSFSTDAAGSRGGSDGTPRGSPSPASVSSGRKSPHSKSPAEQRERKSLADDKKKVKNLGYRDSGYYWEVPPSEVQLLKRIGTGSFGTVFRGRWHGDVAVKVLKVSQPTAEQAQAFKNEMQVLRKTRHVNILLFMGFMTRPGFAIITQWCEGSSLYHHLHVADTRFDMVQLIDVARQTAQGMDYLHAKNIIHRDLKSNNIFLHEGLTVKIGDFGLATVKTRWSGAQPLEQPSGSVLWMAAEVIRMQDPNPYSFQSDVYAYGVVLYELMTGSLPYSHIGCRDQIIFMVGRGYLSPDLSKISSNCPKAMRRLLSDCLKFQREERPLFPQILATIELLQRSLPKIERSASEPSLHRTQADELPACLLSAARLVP
SMILES,IC50 (ARAF) [nM],"IC50 ([1]; HCT116 cells, class symbol) [nM]","YMIN of pERK IC50 dose response curve (paradoxical induction of pERK signaling) ([1]; RAS-mutant HCT116 cells, FIG. 1) [%]",paradoxical induction of pERK or pMEK signaling (immunoblot) [2]
"O=C1CCc2c(Oc3ccc4c(c3)[C@@H]3[C@H](O4)[C@H]3c3nc4ccc(C(F)(F)F)cc4[nH]3)ccnc2N1 [BGB283, reference compound]",> 10,,,
Cc1nc(N)ccc1S(=O)(=O)Nc1ccc(F)c(Nc2ncnc3ccc(-n4cnc5c(N)cccc54)nc23)c1F [Example 353],1 to 10,1000 to 10000,,
"Cc1ccc(NC(=O)c2ccnc(C(F)(F)F)c2)cc1-c1cc(OCCO)nc(N2CCOCC2)c1 [LXH254, reference compound]",> 10,,,
"CCCS(=O)(=O)Nc1ccc(F)c(C(=O)c2c[nH]c3ncc(Cl)cc23)c1F [PLX4720, reference compound]",,,~−600,induces the pathway
